Here are results for 63 compounds from PubChem BioAssay AID1324 (NMMLSC, 2008).

The target in the test is glutathione S-transferase (GST-GSH binding). The test is described as follows: GST–glutathione interaction disruption – biochemical, multiplex beads, flow cytometry, HPSMTB buffer, profiling panel (AID 1324).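 As to all read-outs here: glutathione beads loaded with GST-green fluorescent protein and no fluorescent Bim peptide.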 The note with it: multiplex bead flow cytometry, MCF; for percent span inhibition: stronger effect = higher value, concentration not given here.

Active and inactive are the calls of the source. No rule for the calls is given here.

As for `O=C(Nc1nnc(C2CC2)s1)C1Cc2ccccc2CN1S(=O)(=O)c1ccccc1F` (stereo not drawn), the percent span inhibition result was “inactive”.
Still for that read-out and setting: with `Cc1onc(-c2ccccc2)c1C(=O)Nc1nnc(COc2ccc(Cl)cc2)s1` the entry was “inactive”; with `O=C(O)CCN1C(=O)/C(=C\c2ccc(-c3nc4ccccc4s3)o2)SC1=S`, “inactive”; with `Cc1c(N=C2C=CC(=O)c3ccccc32)c(=O)n(-c2ccccc2)n1C`, “inactive”.
On the same count and under the same terms, with `CSc1ccccc1NC(=O)CN(C)CC(=O)Nc1ccc(N2CCOCC2)cc1` the entry was “inactive”.
`Cc1cccc(/C=N/N(CCO)C2=NS(=O)(=O)c3ccccc32)c1`: the EC50 entry was “inactive”.
In the case of `O=C(NCc1ccccc1)C(=O)Nc1nc(C23CC4CC(CC(C4)C2)C3)cs1`, the percent span inhibition entry was “inactive”.
Same read-out and setting: the same measure for `CC1(C)CC(NC(=O)COc2ccc([N+](=O)[O-])cc2)CC(C)(C)N1`: “inactive”.
Same read-out and setting: the same measure for `Cc1cnnn1-c1ccc(C(=O)CCl)cc1`: “inactive”.
For the compound `Cc1ccc(-c2cc(C(=O)Nc3cccnc3)c3ccccc3n2)o1`, the percent span inhibition entry was “inactive”.
The same measure, in the same setting: with `O=C(Nc1ccccc1)Nc1ccc2ncoc2c1` the entry was “inactive”; with `Cc1cc(/C=C(/C#N)C(=O)Nc2ccc(Cl)cc2)c(C)n1-c1cccnc1`, “inactive”.
With `COc1cc(/C=C2\S/C(=N/S(=O)(=O)c3ccc(C)cc3)NC2=O)c([N+](=O)[O-])cc1OC`, the percent span inhibition result was “inactive”.
For `Cc1cccc(C(=O)N2CCC(c3nc(-c4ccc(S(=O)(=O)N5CCOCC5)cc4)no3)CC2)c1`, the percent span inhibition entry is “inactive”.
In the case of `Cc1ccc(Nc2nc(-c3c(C)nc4ncccn34)cs2)cc1`, the EC50 result is “inactive”.
For `CCOc1ccc(-n2cc(-c3ccc(OC)c(OC)c3)[nH]c2=S)cc1`, the percent span inhibition entry was “inactive”.
Same read-out and setting: with `CCOC(=O)c1sc(N)c(C(=O)Nc2ccccc2OC)c1C` the entry was “inactive”.
Same read-out and setting: the same measure for `C/C(=N\NC(=O)COc1ccc(C#N)cc1)c1ccccc1OC(F)F`: “inactive”.
With `Cc1c(NC2=C(Cl)C(=O)N(c3ccccc3Cl)C2=O)c(=O)n(-c2ccccc2)n1C`, the percent span inhibition result is “inactive”.
On the same count and under the same terms, with `Cc1cccn2c(=O)c3cc(C(N)=S)c(=N)n(CCCN4CCOCC4)c3nc12` the entry was “inactive”.
Still for that read-out and setting: the same measure for `Cc1cc(C)nc(/N=C(\N)N2CCc3ccccc32)n1`: “inactive”; for `Cn1c(N)c(C(=O)COC(=O)c2cc(-c3ccco3)nc3ccccc23)c(=O)n(Cc2ccccc2)c1=O`: “inactive”; for `Cc1cc[n+]2cc(-c3cccc([N+](=O)[O-])c3)c(-c3cccc([N+](=O)[O-])c3)cc2c1`: “inactive”.
Turning to `CCOc1ccccc1C(=O)NC1CC2CCCC(C1)N2C1CC1` (stereo not drawn), the percent span inhibition entry was “inactive”.
On the same count and under the same terms, with `Cc1ccc(CC(=O)OCCNC(=O)c2cccnc2)cc1` the entry was “inactive”.
On the same count and under the same terms, with `Cc1nc2ccccc2n1CSc1ccccc1` the entry was “inactive”.
Same read-out and setting: the same measure for `CCOC(=O)/C(=C\c1ccc(Cl)cc1)c1nc2sc(C)c(C)c2c(=O)[nH]1`: “inactive”.
In the case of `Cc1ccc(NC(=O)c2cc(S(=O)(=O)NCCC3=CCCCC3)ccc2F)cc1F`, the percent span inhibition entry is “inactive”.
The same measure, in the same setting: the same measure for `c1csc(C2=Nn3c(nnc3-c3ccncc3)SC2)c1`: “inactive”; for `CN(/N=C/c1cccnc1)C1=NS(=O)(=O)c2ccccc21`: “inactive”; for `Cc1csc(SCCn2c(N3CCN(c4ccccc4)CC3)nc3c2c(=O)[nH]c(=O)n3C)n1`: “inactive”.
On the same count and under the same terms, with `CCCn1c(C)cc(-c2csc(N)n2)c1C` the entry was “inactive”.
Same read-out and setting: with `CCN(CC)S(=O)(=O)c1cccc(C(=O)N/N=C/c2ccc(O)c(O)c2O)c1` the entry was “inactive”.
For the compound `CN(C)c1ccc(Nc2nc(-c3cccnc3)cs2)cc1`, the percent span inhibition result was “inactive”.
On the same count and under the same terms, the same measure for `Cc1cc(-c2cc(-c3ccc(Cl)cc3)nc(N)c2C#N)co1`: “inactive”; for `CN(C)CCNC(=O)C(=O)C1C(=O)Nc2ccccc21` (stereo not drawn): “inactive”.
Same read-out and setting: the same measure for `O=C(Nc1nnc(COc2ccc(Cl)cc2)s1)c1ccco1`: “inactive”.
Still for that read-out and setting: the same measure for `COc1cc(/C=N/Nc2nc3c(c(=O)n(C)c(=O)n3C)n2Cc2ccccc2)ccc1OC(=O)c1ccco1`: “inactive”; for `O=C(O)c1ccc(NS(=O)(=O)c2ccc3c(c2)C(=O)c2ccccc2C3=O)cc1`: “inactive”; for `Cc1ccc(Nc2nc(C)cs2)cc1`: “inactive”.
Regarding `CNC(=O)c1c(N)sc2c1CCCCC2`, the percent span inhibition result was “inactive”.
Consider `O=C1NC(=S)S/C1=C/c1ccc(N2CCOCC2)o1`, for which the percent span inhibition result was “inactive”.
Still for that read-out and setting: the same measure for `OCCN1CCN(CCCc2c3c(cc4c2CCC4)CCC3)CC1`: “inactive”; for `CC1C=CCC2C(=O)N(c3ccc(OC(=O)c4cccs4)cc3)C(=O)C12` (stereo not drawn): “inactive”; for `COc1cc(/C=N/NC(=O)c2ccc([N+](=O)[O-])cc2Cl)cc(Br)c1O`: “inactive”.
Same read-out and setting: the same measure for `CCC(=O)NC(c1ccc(C)cc1)c1cc([N+](=O)[O-])c2cccnc2c1O` (stereo not drawn): “inactive”; for `Cc1ccc(CNc2ccc3c(c2)OCO3)c(C)c1`: “inactive”.
On the same count and under the same terms, with `O=C1C(=O)c2ccc(-c3ccccc3)cc2-c2ccccc21` the entry was “inactive”; with `O=C(NC1=C(Nc2ccc(F)cc2)C(=O)c2ccccc2C1=O)c1ccc(Cl)cc1`, “inactive”; with `COc1ccc(NC(=O)C2=C(C)NC(=O)NC2c2cccc(OC)c2OC)c(OC)c1` (stereo not drawn), “inactive”.
On to `COC(=O)CCC(=O)Nc1sc(Cc2ccccc2)c(C)c1C(N)=O`, for which the percent span inhibition entry is “inactive”.
On to `COc1ccc(C)cc1-n1c(=O)c2ccccc2c2ccccc2c1=O`, for which the percent span inhibition entry was “inactive”.
On the same count and under the same terms, with `CCOC(=O)C1(Cc2cccc(OC)c2)CCN(Cc2cccc(OC)c2OC)CC1` the entry was “inactive”; with `Cc1cc(C)nc(SCc2cc(=O)c(OC(=O)c3cccc([N+](=O)[O-])c3)co2)n1`, “inactive”.
The same measure, in the same setting: with `Cc1cc(N2CCN(C)CC2)nc2ccc(NC(=S)N3CCN(c4ccc(F)cc4)CC3)cc12` the entry was “inactive”.
On the same count and under the same terms, with `N#Cc1cccc(N=c2ssnc2Cl)c1` the entry was “inactive”.
For `Clc1nssc1=Nc1ccccc1`, the percent span inhibition entry is “inactive”.
On to `CN(/N=C/c1ccncc1)C1=NS(=O)(=O)c2ccccc21`, for which the EC50 is 3.16 µM.
Take `COc1ccc(C(=O)Nc2ccc(NC(=O)c3cccs3)cc2)cc1Cl`: the percent span inhibition result was “inactive”.
The same measure, in the same setting: with `CC(CCc1ccccc1)NC(=O)C1CCN(S(=O)(=O)N2CCCCC2)CC1` (stereo not drawn) the entry was “inactive”; with `Fc1ccc(C2=Nn3c(Cc4ccccc4F)nnc3SC2)cc1`, “inactive”; with `CCN(CC)c1ccc(NC(=O)c2ccccc2)cc1S(=O)(=O)Nc1ccccc1OC`, “inactive”.
Same read-out and setting: with `COc1ccc(N2C(=O)C(Cl)=C(Nc3ccccc3O)C2=O)cc1` the entry was “inactive”.
